For the experiment, the target named is Neuronal acetylcholine receptor subunit alpha-7 (Homo sapiens, UniProt P36544). Nature of the experiment: Agonist activity at nAChR alpha-7 expressed in Xenopus oocytes. Format: functional, cell-based, Oocyte.

EC50 data for 2 compounds are collected here from ChEMBL document CHEMBL1147168, “Quinuclidines as selective agonists for alpha-7 nicotinic acetylcholine receptors” (Bioorg Med Chem Lett, 2007).

Neuronal acetylcholine receptor subunit alpha-7, sequence (P36544 whole entry): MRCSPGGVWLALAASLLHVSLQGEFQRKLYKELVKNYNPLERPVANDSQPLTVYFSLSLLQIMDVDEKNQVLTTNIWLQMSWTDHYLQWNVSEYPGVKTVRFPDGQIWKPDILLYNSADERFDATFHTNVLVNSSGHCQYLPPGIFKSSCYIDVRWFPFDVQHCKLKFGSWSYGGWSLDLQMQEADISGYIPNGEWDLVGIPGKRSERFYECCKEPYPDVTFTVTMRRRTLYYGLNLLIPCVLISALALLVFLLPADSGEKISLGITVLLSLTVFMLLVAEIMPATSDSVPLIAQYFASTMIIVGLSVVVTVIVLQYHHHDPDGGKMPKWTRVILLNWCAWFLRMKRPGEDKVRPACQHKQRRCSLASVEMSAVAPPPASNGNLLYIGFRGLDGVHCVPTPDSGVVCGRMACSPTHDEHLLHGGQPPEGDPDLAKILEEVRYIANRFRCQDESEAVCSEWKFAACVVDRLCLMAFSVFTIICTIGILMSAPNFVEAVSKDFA

Compound `COc1ccc(/C=C2/CN3CCC2CC3)cc1` returned a half-maximal effective concentration (EC50) of 1.3 µM.

`C(=C1\CN2CCC1CC2)/c1ccccc1` had a concentration for a half-maximal effect (EC50) of 1.5 µM. The EC50 values of the last two compounds are within 1.5-fold of each other.
